# According to the kinase profiling compilation of Christmann-Franck et al. (2016):
# Where “and” joins values, the source holds several entries; their conditions need not be identical. Equal values may be shown once.
# Experiments:
# [1] = molecular target: PLK1 (human) (UniProt P53350)
# [2] = molecular target: PRKACA (human) (UniProt P17612)
# [3] = molecular target: CDK2 CCNA2 (human) (UniProt P20248+P24941)
# [4] = molecular target: HIPK2 (human) (UniProt Q9H2X6)
# [5] = molecular target: MARK3 (human) (UniProt P27448)
# [6] = molecular target: PDPK1 (human) (UniProt O15530)
# [7] = molecular target: MAPKAPK2 (human) (UniProt P49137)
# [8] = molecular target: FLT1 (human) (UniProt P17948)
# [9] = molecular target: MAPK11 (human) (UniProt Q15759)
# [10] = molecular target: AURKB (human) (UniProt Q96GD4)
# [11] = molecular target: PRKCA (human) (UniProt P17252)
# [12] = molecular target: PKN2 (human) (UniProt Q16513)
# [13] = molecular target: IKBKE (human) (UniProt Q14164)
# [14] = molecular target: IGF1R (human) (UniProt P08069)
# [15] = molecular target: EPHB3 (human) (UniProt P54753)
# [16] = molecular target: SYK (human) (UniProt P43405)
# [17] = molecular target: CHEK2 (human) (UniProt O96017)
# [18] = molecular target: MELK (human) (UniProt Q14680)
# [19] = molecular target: GSK3B (human) (UniProt P49841)
# [20] = molecular target: PRKCZ (human) (UniProt Q05513)
# [21] = molecular target: PAK4 (human) (UniProt O96013)
# [22] = molecular target: BTK (human) (UniProt Q06187)
# [23] = molecular target: IKBKB (human) (UniProt O14920)
# [24] = molecular target: MAPK12 (human) (UniProt P53778)
# [25] = molecular target: SRPK1 (human) (UniProt Q96SB4)
# [26] = test system: ROCK2 (rat); conditions: accession and sequence are those of the human protein
# [27] = molecular target: MAPK8 (human) (UniProt P45983); conditions: compound 1.0 µM
# [28] = molecular target: CHEK1 (human) (UniProt O14757)
# [29] = molecular target: MAP2K1 (human) (UniProt Q02750)
# [30] = molecular target: DYRK2 (human) (UniProt Q92630)
# [31] = test system: PRKAA1 or PRKAA2 (rat); conditions: accession and sequence are those of the human protein
# [32] = molecular target: CAMKK2 (human) (UniProt Q96RR4)
# [33] = molecular target: MAPKAPK5 (human) (UniProt Q8IW41)
# [34] = molecular target: FGFR1 (human) (UniProt P11362)
# Chain of PDPK1 (human) (O15530 whole entry, looked up): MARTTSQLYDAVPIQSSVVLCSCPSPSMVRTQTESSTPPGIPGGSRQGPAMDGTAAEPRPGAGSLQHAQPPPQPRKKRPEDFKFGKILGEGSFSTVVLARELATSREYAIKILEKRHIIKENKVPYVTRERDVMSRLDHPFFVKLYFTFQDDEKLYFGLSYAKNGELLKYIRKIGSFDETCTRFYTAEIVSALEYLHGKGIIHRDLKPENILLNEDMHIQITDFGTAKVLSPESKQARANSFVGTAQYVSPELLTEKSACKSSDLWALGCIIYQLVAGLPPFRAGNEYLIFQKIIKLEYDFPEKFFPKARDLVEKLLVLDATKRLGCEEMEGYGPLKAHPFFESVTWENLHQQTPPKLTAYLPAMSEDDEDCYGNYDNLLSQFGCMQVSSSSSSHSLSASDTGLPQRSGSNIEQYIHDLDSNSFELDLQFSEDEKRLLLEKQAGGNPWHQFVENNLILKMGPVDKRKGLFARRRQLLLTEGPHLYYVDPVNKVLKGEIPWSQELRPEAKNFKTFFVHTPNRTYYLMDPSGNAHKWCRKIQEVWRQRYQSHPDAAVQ
# Chain of MELK (human) (Q14680 whole entry, looked up): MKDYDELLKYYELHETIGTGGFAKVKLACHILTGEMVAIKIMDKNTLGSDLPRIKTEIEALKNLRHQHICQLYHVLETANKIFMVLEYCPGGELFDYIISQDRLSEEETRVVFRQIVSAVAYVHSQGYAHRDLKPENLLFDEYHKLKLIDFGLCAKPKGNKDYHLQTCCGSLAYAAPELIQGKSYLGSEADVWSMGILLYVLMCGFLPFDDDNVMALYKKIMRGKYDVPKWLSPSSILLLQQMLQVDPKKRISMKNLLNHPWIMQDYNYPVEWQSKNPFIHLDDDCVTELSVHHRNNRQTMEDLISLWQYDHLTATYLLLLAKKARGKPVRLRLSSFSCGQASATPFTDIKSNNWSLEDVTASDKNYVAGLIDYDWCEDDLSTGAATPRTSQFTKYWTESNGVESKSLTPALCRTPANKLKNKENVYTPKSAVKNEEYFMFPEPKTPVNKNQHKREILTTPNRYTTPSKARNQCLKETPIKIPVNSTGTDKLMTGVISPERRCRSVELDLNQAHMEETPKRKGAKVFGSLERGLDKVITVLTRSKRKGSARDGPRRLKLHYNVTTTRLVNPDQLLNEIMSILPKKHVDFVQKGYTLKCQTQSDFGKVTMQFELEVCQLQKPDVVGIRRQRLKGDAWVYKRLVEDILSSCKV
# Chain of DYRK2 (human) (Q92630 whole entry, looked up): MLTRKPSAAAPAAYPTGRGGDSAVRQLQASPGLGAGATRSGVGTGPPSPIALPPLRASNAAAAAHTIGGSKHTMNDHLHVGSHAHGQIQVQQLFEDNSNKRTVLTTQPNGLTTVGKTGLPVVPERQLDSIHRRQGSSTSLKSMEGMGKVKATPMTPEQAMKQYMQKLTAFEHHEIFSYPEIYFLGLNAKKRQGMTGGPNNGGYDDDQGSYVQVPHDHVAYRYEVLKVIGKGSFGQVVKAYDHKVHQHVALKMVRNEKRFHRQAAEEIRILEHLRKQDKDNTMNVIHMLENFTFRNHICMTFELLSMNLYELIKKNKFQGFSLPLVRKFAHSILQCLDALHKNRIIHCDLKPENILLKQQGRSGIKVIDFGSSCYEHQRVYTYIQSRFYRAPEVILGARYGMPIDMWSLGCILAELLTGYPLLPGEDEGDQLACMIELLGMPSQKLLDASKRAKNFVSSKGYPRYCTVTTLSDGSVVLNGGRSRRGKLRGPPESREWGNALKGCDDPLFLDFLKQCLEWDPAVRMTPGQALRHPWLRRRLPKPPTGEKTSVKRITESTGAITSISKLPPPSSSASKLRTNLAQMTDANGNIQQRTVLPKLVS
# Chain of PRKCZ (human) (Q05513 whole entry, looked up): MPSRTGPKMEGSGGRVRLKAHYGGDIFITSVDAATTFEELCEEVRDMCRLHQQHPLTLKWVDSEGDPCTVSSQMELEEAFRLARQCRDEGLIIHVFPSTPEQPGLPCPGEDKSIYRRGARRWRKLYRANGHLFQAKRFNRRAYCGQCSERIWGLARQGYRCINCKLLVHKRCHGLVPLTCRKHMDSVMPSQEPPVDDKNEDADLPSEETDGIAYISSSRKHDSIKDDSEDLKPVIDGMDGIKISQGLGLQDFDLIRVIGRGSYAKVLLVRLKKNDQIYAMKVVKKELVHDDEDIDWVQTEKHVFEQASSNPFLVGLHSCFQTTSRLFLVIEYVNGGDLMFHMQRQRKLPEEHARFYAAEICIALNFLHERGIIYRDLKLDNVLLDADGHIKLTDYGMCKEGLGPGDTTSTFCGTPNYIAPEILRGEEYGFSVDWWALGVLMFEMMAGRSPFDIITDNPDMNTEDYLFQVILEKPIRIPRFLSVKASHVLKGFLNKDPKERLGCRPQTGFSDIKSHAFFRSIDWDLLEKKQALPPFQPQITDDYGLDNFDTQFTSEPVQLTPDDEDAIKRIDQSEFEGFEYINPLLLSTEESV
# Chain of MAPK12 (human) (P53778 whole entry, looked up): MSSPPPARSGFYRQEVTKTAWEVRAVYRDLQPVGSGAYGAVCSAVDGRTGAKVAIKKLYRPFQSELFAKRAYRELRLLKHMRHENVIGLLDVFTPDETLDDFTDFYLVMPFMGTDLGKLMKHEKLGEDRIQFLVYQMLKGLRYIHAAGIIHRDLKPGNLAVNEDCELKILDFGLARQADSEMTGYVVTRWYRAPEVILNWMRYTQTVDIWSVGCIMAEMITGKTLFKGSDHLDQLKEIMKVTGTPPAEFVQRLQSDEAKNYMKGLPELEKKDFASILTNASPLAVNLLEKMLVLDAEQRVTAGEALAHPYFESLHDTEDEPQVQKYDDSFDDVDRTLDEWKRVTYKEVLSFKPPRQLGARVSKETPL
# Chain of IKBKE (human) (Q14164 whole entry, looked up): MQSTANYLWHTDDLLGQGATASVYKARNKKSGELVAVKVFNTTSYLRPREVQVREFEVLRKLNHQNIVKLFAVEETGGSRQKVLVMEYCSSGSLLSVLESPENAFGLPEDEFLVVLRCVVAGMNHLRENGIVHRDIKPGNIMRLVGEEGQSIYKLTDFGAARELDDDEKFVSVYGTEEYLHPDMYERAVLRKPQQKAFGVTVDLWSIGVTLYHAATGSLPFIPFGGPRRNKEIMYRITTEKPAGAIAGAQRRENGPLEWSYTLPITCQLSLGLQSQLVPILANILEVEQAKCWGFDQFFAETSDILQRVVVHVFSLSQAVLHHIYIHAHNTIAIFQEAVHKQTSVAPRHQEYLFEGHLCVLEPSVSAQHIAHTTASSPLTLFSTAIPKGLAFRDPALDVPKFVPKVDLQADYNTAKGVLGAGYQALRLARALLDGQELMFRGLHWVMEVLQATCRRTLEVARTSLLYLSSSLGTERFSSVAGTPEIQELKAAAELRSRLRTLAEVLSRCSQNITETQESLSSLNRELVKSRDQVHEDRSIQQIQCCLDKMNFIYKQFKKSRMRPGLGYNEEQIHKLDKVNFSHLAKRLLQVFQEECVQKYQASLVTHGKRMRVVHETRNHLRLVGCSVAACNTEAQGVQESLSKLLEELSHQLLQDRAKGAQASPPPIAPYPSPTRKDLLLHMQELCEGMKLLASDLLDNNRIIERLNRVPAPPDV
# Chain of CAMKK2 (human) (Q96RR4 whole entry, looked up): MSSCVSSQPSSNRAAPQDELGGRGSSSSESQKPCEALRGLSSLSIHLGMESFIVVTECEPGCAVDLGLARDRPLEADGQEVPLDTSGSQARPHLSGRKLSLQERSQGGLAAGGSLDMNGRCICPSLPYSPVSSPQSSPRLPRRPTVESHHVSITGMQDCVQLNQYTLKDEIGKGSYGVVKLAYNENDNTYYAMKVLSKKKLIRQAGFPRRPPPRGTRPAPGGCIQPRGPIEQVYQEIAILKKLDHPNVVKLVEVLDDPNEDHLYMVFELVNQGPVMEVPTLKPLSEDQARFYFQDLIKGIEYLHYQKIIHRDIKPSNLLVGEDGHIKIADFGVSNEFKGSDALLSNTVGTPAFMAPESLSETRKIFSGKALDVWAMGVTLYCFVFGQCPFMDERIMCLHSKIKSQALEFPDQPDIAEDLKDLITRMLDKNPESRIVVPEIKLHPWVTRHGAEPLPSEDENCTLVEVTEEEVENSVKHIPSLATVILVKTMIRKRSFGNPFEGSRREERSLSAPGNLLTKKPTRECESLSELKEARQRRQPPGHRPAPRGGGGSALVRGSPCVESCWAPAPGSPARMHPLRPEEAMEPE
# Chain of PAK4 (human) (O96013 whole entry, looked up): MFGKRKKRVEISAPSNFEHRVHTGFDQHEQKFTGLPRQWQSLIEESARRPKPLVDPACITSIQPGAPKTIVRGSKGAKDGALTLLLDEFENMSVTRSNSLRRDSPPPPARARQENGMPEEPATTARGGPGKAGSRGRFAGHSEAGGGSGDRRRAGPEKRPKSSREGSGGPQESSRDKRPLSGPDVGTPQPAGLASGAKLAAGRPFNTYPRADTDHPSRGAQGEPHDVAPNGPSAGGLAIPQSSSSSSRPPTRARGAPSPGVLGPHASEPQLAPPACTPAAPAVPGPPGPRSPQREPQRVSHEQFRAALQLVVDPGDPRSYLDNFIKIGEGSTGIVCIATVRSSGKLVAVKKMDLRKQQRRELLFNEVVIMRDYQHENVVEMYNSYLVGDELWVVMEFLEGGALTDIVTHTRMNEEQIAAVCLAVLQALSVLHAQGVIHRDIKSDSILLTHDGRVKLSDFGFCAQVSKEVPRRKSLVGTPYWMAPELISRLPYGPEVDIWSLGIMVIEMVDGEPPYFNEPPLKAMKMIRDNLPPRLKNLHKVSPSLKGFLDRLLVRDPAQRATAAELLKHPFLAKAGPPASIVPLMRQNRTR
# Chain of MAPK11 (human) (Q15759 whole entry, looked up): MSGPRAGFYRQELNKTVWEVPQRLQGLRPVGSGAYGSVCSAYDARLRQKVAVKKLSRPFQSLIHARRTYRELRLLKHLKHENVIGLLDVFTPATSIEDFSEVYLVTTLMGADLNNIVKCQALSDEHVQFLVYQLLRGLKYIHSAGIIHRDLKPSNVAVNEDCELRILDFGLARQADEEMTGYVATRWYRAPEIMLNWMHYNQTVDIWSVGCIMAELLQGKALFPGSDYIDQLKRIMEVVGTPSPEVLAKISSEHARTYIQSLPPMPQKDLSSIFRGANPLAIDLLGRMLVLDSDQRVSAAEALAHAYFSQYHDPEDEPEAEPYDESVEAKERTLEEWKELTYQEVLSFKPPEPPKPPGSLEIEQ
smiles,measurement,setting,value
CCC(=O)N1CCN(c2ccc(-n3c(=O)ccc4cnc5ccc(-c6cnc7ccccc7c6)cc5c43)cc2C(F)(F)F)CC1,per cent of control,[1]; compound 1.0 µM,94%
same,per cent of control,[1]; compound 10.0 µM,84%
same,per cent of control,[2]; compound 1.0 µM,106%
same,per cent of control,[2]; compound 10.0 µM,96%
same,per cent of control,[3]; compound 1.0 µM,108%
same,per cent of control,[3]; compound 10.0 µM,77%
same,per cent of control,[4]; compound 1.0 µM,96%
same,per cent of control,[4]; compound 10.0 µM,88%
same,per cent of control,[5]; compound 1.0 µM,99%
same,per cent of control,[5]; compound 10.0 µM,98%
same,per cent of control,[6]; compound 1.0 µM,100% and 117%
same,per cent of control,[6]; compound 10.0 µM,98% and 101%
same,per cent of control,[7]; compound 1.0 µM,102%
same,per cent of control,[7]; compound 10.0 µM,108%
same,per cent of control,[8]; compound 1.0 µM,108%
same,per cent of control,[8]; compound 10.0 µM,84%
same,per cent of control,[9]; compound 1.0 µM,83%
same,per cent of control,[9]; compound 10.0 µM,78%
same,per cent of control,[10]; compound 1.0 µM,107%
same,per cent of control,[10]; compound 10.0 µM,90%
same,per cent of control,[11]; compound 1.0 µM,83%
same,per cent of control,[11]; compound 10.0 µM,68%
same,per cent of control,[12]; compound 1.0 µM,97%
same,per cent of control,[12]; compound 10.0 µM,114%
same,per cent of control,[13]; compound 1.0 µM,96%
same,per cent of control,[13]; compound 10.0 µM,85%
same,per cent of control,[14]; compound 1.0 µM,100%
same,per cent of control,[14]; compound 10.0 µM,93%
same,per cent of control,[15]; compound 1.0 µM,115%
same,per cent of control,[15]; compound 10.0 µM,94%
same,per cent of control,[16]; compound 1.0 µM,131%
same,per cent of control,[16]; compound 10.0 µM,68%
same,per cent of control,[17]; compound 1.0 µM,90%
same,per cent of control,[17]; compound 10.0 µM,83%
same,per cent of control,[18]; compound 1.0 µM,63%
same,per cent of control,[18]; compound 10.0 µM,17%
same,per cent of control,[19]; compound 1.0 µM,79%
same,per cent of control,[19]; compound 10.0 µM,49%
same,per cent of control,[20]; compound 1.0 µM,121%
same,per cent of control,[20]; compound 10.0 µM,106%
same,per cent of control,[21]; compound 1.0 µM,110%
same,per cent of control,[21]; compound 10.0 µM,66%
same,per cent of control,[22]; compound 1.0 µM,104%
same,per cent of control,[22]; compound 10.0 µM,56%
same,per cent of control,[23]; compound 1.0 µM,109%
same,per cent of control,[23]; compound 10.0 µM,63%
same,per cent of control,[24]; compound 1.0 µM,103%
same,per cent of control,[24]; compound 10.0 µM,129%
same,per cent of control,[25]; compound 1.0 µM,107%
same,per cent of control,[25]; compound 10.0 µM,110%
same,per cent of control,[26]; compound 1.0 µM,96%
same,per cent of control,[26]; compound 10.0 µM,101%
same,per cent of control,[27],98%
same,per cent of control,[28]; compound 1.0 µM,106%
same,per cent of control,[28]; compound 10.0 µM,125%
same,per cent of control,[29]; compound 1.0 µM,69%
same,per cent of control,[29]; compound 10.0 µM,22%
same,per cent of control,[30]; compound 1.0 µM,99%
same,per cent of control,[30]; compound 10.0 µM,99%
same,per cent of control,[31]; compound 1.0 µM,78%
same,per cent of control,[31]; compound 10.0 µM,93%
same,per cent of control,[32]; compound 1.0 µM,95%
same,per cent of control,[32]; compound 10.0 µM,81%
same,per cent of control,[33]; compound 1.0 µM,118%
same,per cent of control,[33]; compound 10.0 µM,49%
same,per cent of control,[34]; compound 1.0 µM,110%
same,per cent of control,[34]; compound 10.0 µM,79%
